Data on twelve compounds can be found in patent US20050014706A1, “Method of treating tuberculosis” (priority 2003, published 2005).

The subject of the assay is M. tuberculosis H37Rv. The assay is described as follows: MIC vs. M. tuberculosis H37Rv, microplate Alamar Blue assay (MABA). In kind it is cell-based. For orientation: Resazurin is reduced to fluorescent resorufin, in cell work by metabolically active cells.
Setting [1] is: Table 3, parallel-synthesis carbazate library products.

Values after ≈ are worked out from the molar mass of the structure shown. Read-outs that look alike come from different tables or passages of the source.

`CC[C@H]1OC(=O)[C@H](C)C(=O)[C@H](C)[C@@H](O[C@@H]2O[C@H](C)C[C@H](N(C)C)[C@H]2O)[C@](C)(OC)C[C@@H](C)C(=O)[C@H](C)[C@H]2N(CCCn3cnc4c3c(=O)n(C)c(=O)n4C)C(=O)O[C@]12C` [RU66740]: the MIC (Table 1a, 11,12-carbamate derivatives, read-out: Anti-TB Activity MIC) is over 128 µM.

As for `CC[C@H]1OC(=O)[C@H](C)C(=O)[C@H](C)[C@@H](O[C@@H]2O[C@H](C)C[C@H](N(C)C)[C@H]2O)[C@](C)(OC)C[C@@H](C)C(=NOCOCCOC)[C@H](C)[C@@H](O)[C@]1(C)O` [RU54615], for the setting “Table 2a, 11,12-diols, read-out: Anti-TB Activity MIC”, the minimum inhibitory concentration (MIC) is over 128 µM.

As to `CC[C@H]1OC(=O)[C@H](C)[C@@H](O[C@H]2CC(C)(OC)[C@@H](O)[C@H](C)O2)[C@H](C)[C@@H](O[C@@H]2O[C@H](C)C[C@H](N(C)C)[C@H]2O)[C@](C)(OC)C[C@@H](C)C(=O)[C@H](C)[C@H]2N(NCc3csc(-c4ccccc4)n3)C(=O)O[C@]12C` (stereo partly drawn) [F9′], the MIC under setting [1] was 12.6 µM (≈ 12.1 µg/mL).

`CC[C@H]1OC(=O)[C@H](C)[C@@H](O[C@H]2CC(C)(OC)[C@@H](O)[C@H](C)O2)[C@H](C)[C@@H](O[C@@H]2O[C@H](C)C[C@H](N(C)C)[C@H]2O)[C@](C)(OC)C[C@@H](C)C(=O)[C@H](C)[C@H]2N(NCc3ccoc3)C(=O)O[C@]12C` (stereo partly drawn) [A10′]: the MIC under setting [1] is over 7 µM.

Turning to `CC[C@H]1OC(=O)[C@H](C)[C@@H](O[C@H]2CC(C)(OC)[C@@H](O)[C@H](C)O2)[C@H](C)[C@@H](O[C@@H]2O[C@H](C)C[C@H](N(C)C)[C@H]2O)[C@](C)(OC)C[C@@H](C)C(=O)[C@H](C)[C@H]2N(NCc3c(C)[nH]c4ccc([N+](=O)[O-])cc34)C(=O)O[C@]12C` (stereo partly drawn) [B11′], under setting [1], the minimal inhibitory concentration (MIC) is over 22 µM.

As for `CC[C@H]1OC(=O)[C@H](C)[C@@H](O[C@H]2CC(C)(OC)[C@@H](O)[C@H](C)O2)[C@H](C)[C@@H](O[C@@H]2O[C@H](C)C[C@H](N(C)C)[C@H]2O)[C@](C)(OC)C[C@@H](C)C(=O)[C@H](C)[C@H]2N(NCc3cc(C(=O)OC)c(C)o3)C(=O)O[C@]12C` (stereo partly drawn) [A12′], under setting [1], the MIC was over 12 µM.

Regarding `CC[C@H]1OC(=O)[C@H](C)[C@@H](O[C@H]2CC(C)(OC)[C@@H](O)[C@H](C)O2)[C@H](C)[C@@H](O[C@@H]2O[C@H](C)C[C@H](N(C)C)[C@H]2O)[C@](C)(OC)C[C@@H](C)C(=O)[C@H](C)[C@H]2N(NCc3cccn3-c3ccc(Cl)cc3)C(=O)O[C@]12C` (stereo partly drawn) [E12′], the MIC under setting [1] stood at 3.4 µM (≈ 3.32 µg/mL).

For `CC[C@H]1OC(=O)[C@H](C)[C@@H](O[C@H]2CC(C)(OC)[C@@H](O)[C@H](C)O2)[C@H](C)[C@@H](O[C@@H]2O[C@H](C)C[C@H](N(C)C)[C@H]2O)[C@](C)(OC)C[C@@H](C)C(=O)[C@H](C)[C@H]2N(NCc3cccn3-c3ccc(C(F)(F)F)cc3)C(=O)O[C@]12C` (stereo partly drawn) [F1′], the MIC under setting [1] was 17.6 µM (≈ 17.8 µg/mL).

`CC[C@H]1OC(=O)[C@H](C)[C@@H](O[C@H]2CC(C)(OC)[C@@H](O)[C@H](C)O2)[C@H](C)[C@@H](O[C@@H]2O[C@H](C)C[C@H](N(C)C)[C@H]2O)[C@](C)(OC)C[C@@H](C)C(=O)[C@H](C)[C@H]2N(/N=C/c3c(C)noc3-c3ccccc3)C(=O)O[C@]12C` (stereo partly drawn) [C12′]: the MIC under setting [1] turned out to be 9 µM (≈ 8.61 µg/mL).

Turning to `CCCCc1nc(CNN2C(=O)O[C@]3(C)[C@@H](CC)OC(=O)[C@H](C)[C@@H](O[C@H]4CC(C)(OC)[C@@H](O)[C@H](C)O4)[C@H](C)[C@@H](O[C@@H]4O[C@H](C)C[C@H](N(C)C)[C@H]4O)[C@](C)(OC)C[C@@H](C)C(=O)[C@H](C)[C@@H]23)c(Cl)[nH]1` (stereo partly drawn) [B7′], the MIC under setting [1] was over 19 µM.

`CC[C@H]1OC(=O)[C@H](C)[C@@H](O[C@H]2CC(C)(OC)[C@@H](O)[C@H](C)O2)[C@H](C)[C@@H](O[C@@H]2O[C@H](C)C[C@H](N(C)C)[C@H]2O)[C@](C)(OC)C[C@@H](C)C(=O)[C@H](C)[C@H]2N(NCc3cnccc3NC(=O)C(C)(C)C)C(=O)O[C@]12C` (stereo partly drawn) [E2′]: under setting [1], the minimal inhibitory concentration (MIC) was over 27 µM.

Under setting [1], `CC[C@H]1OC(=O)[C@H](C)[C@@H](O[C@H]2CC(C)(OC)[C@@H](O)[C@H](C)O2)[C@H](C)[C@@H](O[C@@H]2O[C@H](C)C[C@H](N(C)C)[C@H]2O)[C@](C)(OC)C[C@@H](C)C(=O)[C@H](C)[C@H]2N(NCc3ccnc4ccccc34)C(=O)O[C@]12C` (stereo partly drawn) [D11′] had an MIC of 16 µM (≈ 14.9 µg/mL).

Usually MIC stands for the least concentration at which growth counts as inhibited.
